Like-named read-outs stand apart in the source and are kept apart here.
Experiments:
[1] = test system: APAP-induced hepatotoxicity; conditions: cited from earlier work
[2] = test system: APAP-induced liver toxicity in inbred strains with intact or deficient Bhmt2 activity; experiment: Strain-specific effect of SMM or SAM co-administration on APAP-induced liver toxicity; assay type: in vivo, mouse; conditions: 3 hour after APAP
Experimental: The availability of two inbred strains with allelic variants that eliminate Bhmt2 enzyme activity enabled the hypothesis that Bhmt2 is a susceptibility factor for APAP-induced liver toxicity to be tested in vivo. The effect that co-administration of SAM or SMM, which act on sequential steps in the methionine/GSH biosynthesis pathway, had on APAP-induced liver toxicity in strains with intact or deficient Bhmt2 activity was analyzed.
Hepatic glutathione (GSH) and methionine levels and the serum ALT were measured 3 hour after APAP administration to inbred strains. The R and S in the lower panel indicate whether SMM or SAM co-administration should have a protective (Rescue) effect, or not have a beneficial (Susceptible) effect on APAP-induced liver toxicity, respectively.

Bhmt2 = molecular target: T1, Bhmt2 (Homo sapiens, UniProt Q9H2M3); conditions: Szegedi et al. 2008; cited from earlier work
T1 sequence (Q9H2M3 1-363): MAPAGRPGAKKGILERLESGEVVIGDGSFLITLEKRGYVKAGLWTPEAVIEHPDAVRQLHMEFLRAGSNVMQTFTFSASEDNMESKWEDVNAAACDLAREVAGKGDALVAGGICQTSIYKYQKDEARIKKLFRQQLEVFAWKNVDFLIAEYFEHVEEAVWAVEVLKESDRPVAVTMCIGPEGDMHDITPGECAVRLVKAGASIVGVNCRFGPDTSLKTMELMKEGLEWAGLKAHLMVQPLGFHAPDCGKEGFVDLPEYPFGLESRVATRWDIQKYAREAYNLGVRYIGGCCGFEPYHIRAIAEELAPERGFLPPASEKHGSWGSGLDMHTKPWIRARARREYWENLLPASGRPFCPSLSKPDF

APAP poisoning = conditions: cited from earlier work
hepatic glutathione = conditions: after a toxic dose; James et al. 2003; cited from earlier work
inbred mouse strains = experiment: APAP-induced liver toxicity in a panel of inbred mouse strains (serum ALT activity); assay type: in vivo; conditions: single 300 mg/kg intraperitoneal injection, 6 hour
Experimental: A panel of inbred mouse strains was studied using an integrated genetic, transcriptional and metabolomic approach in order to better characterize genetic factors affecting susceptibility to APAP-induced liver toxicity.
The liver toxic effect of APAP was assessed by measuring the serum alanine aminotransferase (ALT) activity after a single administration of toxic level (300 mg/kg, intraperitoneal injection) APAP.

For `CSCC[C@H](N)C(=O)O` [methionine], the “attenuation of APAP-induced hepatotoxicity” value (from here on “attenuation”) ([1]; previously shown) is listed as “attenuate APAP-induced hepatotoxicity”.

For `C[S+](C)CC[C@H](N)C(=O)[O-]` [SMM, S-methylmethionine], the “effect of co-administration on APAP-induced liver toxicity (hepatic GSH, methionine, serum ALT)” value (from here on “effect of co-administration”) ([2]; strains with active Bhmt2 enzyme (Gly27 allele)) is listed as “protective effect”, the “effect of co-administration” value ([2]; strains with inactive (Ser27 allele) Bhmt2 enzyme) is listed as “not in strains with inactive (Ser27 allele) enzyme” and the “Bhmt2 activity with the substance as methyl donor” value (“Bhmt2 activity with the substance” below) (Bhmt2) is listed as “specific methyltransferase”.

For `CC(=O)N[C@@H](CS)C(=O)O` [N-acetylcysteine], the tolerability (APAP poisoning; oral administration) is given as “poorly tolerated” and the “antidote effect in severe and ongoing APAP poisoning” value (APAP poisoning; patients) is given as “effective antidote”.

In the case of `C[S+](CC[C@H](N)C(=O)O)C[C@H]1O[C@@H](n2cnc3c(N)ncnc32)[C@H](O)[C@@H]1O` (stereo partly drawn) [SAM, S-adenosylmethionine], the “effect of co-administration” value ([2]; all strains) is given as “protective effect in all strains”, the “hepatic GSH levels” value ([1]; C57BL/6J mice, APAP) is given as “preserve hepatic GSH levels” and the “attenuation” value ([1]; C57BL/6J mice) is given as “attenuate APAP-induced hepatotoxicity”. The “attenuation” value ([1]; previously shown) was “attenuate APAP-induced hepatotoxicity” and the “Bhmt2 activity with the substance” value (Bhmt2) was “very low activity”.

For `C[N+](C)(C)CC(=O)O` [betaine], the “Bhmt2 activity with the substance” value (Bhmt2) is listed as “cannot use betaine as the methyl donor”.

In the case of `CC(=O)Nc1ccc(O)cc1` [APAP, Acetaminophen], the “depletion of hepatic glutathione” value (hepatic glutathione) is listed as ≤ 90%, the “liver injury (serum ALT activity)” value (inbred mouse strains; SJL/J mice) is listed as “resistant phenotype” and the “liver injury (serum alanine aminotransferase (ALT) activity)” value (inbred mouse strains; all strains other than SJL/J) is listed as “Significant liver injury”.

— patent publication US8685956B2, “Compositions and methods for reducing the risk of agent-induced liver toxicity” (The Board of Trustees of The University of Illinois, priority 2009, dated 2014)
